This passage reports IC50 results from ChEMBL document CHEMBL3232833, “5,10-seco-neo-clerodanes and neo-clerodanes from Salvia microphylla” (J Nat Prod, 2014).

Each structure is given as a SMILES string. A value given as a limit tells only on which side of the number the result lay.

A short description of assay [1]: Cytotoxicity against human HCT15 cells after 48 hrs by sulforhodamine B method. Particulars: HCT-15, 48 h. The assay is classed as functional, cell-based.
In assay [2] the test system is K562. Kind of assay: Cytotoxicity against human K562 cells after 48 hrs by sulforhodamine B method. The assay is classed as functional, cell-based. Particulars: K562, 48 h.
For assay [3], the system named is MCF7. Kind of assay: Cytotoxicity against human MCF7 cells after 48 hrs by sulforhodamine B method. The assay is classed as functional, cell-based. To be noted: MCF7, 48 h.
Assay [4] deals with PC-3. Kind of assay: Cytotoxicity against human PC3 cells after 48 hrs by sulforhodamine B method. The assay is classed as functional, cell-based. Particulars: PC-3, 48 h. Background: Sulforhodamine B stains cellular protein and so reports cell mass.
Assay [5] can be described thus: Cytotoxicity against human SKLU1 cells after 48 hrs by sulforhodamine B method. The assay is classed as functional, cell-based. To be noted: SK-LU-1, 48 h.
Assay [6] relates to U-251. In words: Cytotoxicity against human U251 cells after 48 hrs by sulforhodamine B method. Particulars: U-251, 48 h. It counts as functional, cell-based.
The subject of assay [7] is Mus musculus. In words: Antiinflammatory activity in CD1 mouse assessed as reduction of TPA-induced ear edema per ear after 4 hrs. It counts as functional, organism-based.

With `C[C@]12C[C@H](c3ccoc3)OC(=O)[C@H]1CC[C@@]13COC(=O)C1=CC=C[C@@]32O`, the IC50 in assay [1], in assay [2], in assay [3], in assay [4], in assay [5] and in assay [6] was > 10 µM throughout. Moreover, the IC50 in assay [7] was > 1 µmol.

For `C[C@]12C[C@H](c3ccoc3)OC(=O)[C@H]1CCC1=C(/C=C\CC2=O)C(=O)OC1`, the IC50 in assay [1], in assay [2], in assay [3], in assay [4], in assay [5] and in assay [6] was > 10 µM throughout. Besides, the IC50 in assay [7] was > 1 µmol.
